Patent US20060142354A1, “Use of epothilone derivatives for the treatment of hyperparathyroidism” (priority 2002, published 2006)

Assays:
Format in all cases: cell-based, human
[1] = test system: Tumor disks from seven fresh surgical specimens; experiment: in vitro angiogenesis assay, mean over all tumors; conditions: Mean +/− SEM of seven tumors; for % Initiation % ↓ / Al (0-16) % ↓: 10^−8 M, decrease vs control
From the text: (§1) It is submitted that at least part of the effect observed with the compounds of formula I on the diseases mentioned herein are resulting from the inhibition of angiogenesis. […] It is known that human vein disks incorporated into a 0.3% fibrin-thrombin clot will develop angiogenic vessel growth from the cut edge of the vessel disk.
(§2) METHODS: Tumor disks (2 mm in diameter) from seven fresh surgical specimens are incorporated into fibrin-thrombin clots overlayed with nutrient medium containing 20% fetal bovine serum. The fragments are allowed to become angiogenic and on day 18, nutrient medium or nutrient medium containing a compound of formula I, is added. Tumor disks are visually assessed over time to determine the percent of wells that initiated an angiogenic response (% I). Neovessel growth, density, and length are graded at intervals using a semi-quantitative visual neovessel growth-rating scheme [angiogenic index (AI), 0-16 scale]. Statistical significance of the results is tested using comparison of two proportions for % initiation and t-tests for the angiogenic index (p<0.05 considered significant*).

[2] = test system: Renal cell carcinoma tumor disks; experiment: in vitro angiogenesis assay, tumor disks in fibrin-thrombin clot
From the text: as §1, §2

[3] = test system: Bronchial carcinoid tumor disks; experiment: as above
From the text: as §1, §2

[4] = test system: Thyroid cancer tumor disks; experiment: as above; conditions: Thyroid cancer (identified as a parathyroid adenoma)
From the text: as §1, §2

[5] = test system: Midgut carcinoid tumor disks; experiment: as above
From the text: as §1, §2

[6] = test system: Thymic carcinoid tumor disks; experiment: as above
From the text: as §1, §2

[7] = test system: Breast carcinoma tumor disks; experiment: as above
From the text: as §1, §2

[8] = test system: Midgut carcinoid (met) tumor disks; experiment: as above
From the text: as §1, §2

[9] = percent of wells that initiated an angiogenic response

C/C(=C\c1csc(C)n1)[C@@H]1C[C@@H]2O[C@]2(C)CCC[C@H](C)[C@H](O)[C@@H](C)C(=O)C(C)(C)[C@@H](O)CC(=O)O1 [epothilone B]
Al (0-16) EpoB 10^−8 M ([1]; angiogenic index, 0-16 scale): 3 ± 1.1 | % Initiation EpoB 10^−8 M [1, 9]: 17.2 ± 7.4% | % Initiation % ↓ [1]: 60±13.8% | Al (0-16) % ↓ [1]: 73±9% | % Initiation % ↓ ([1]; listed as EpoB): 60 ± 14% | Al (0-16) % ↓ ([1]; listed as EpoB): 73 ± 9% | % Initiation % ↓ ([2]; 10^−8 M, decrease vs control): 88% | Al (0-16) % ↓ ([2]; 10^−8 M, decrease vs control): 80% | Al (0-16) EpoB 10^−8 M ([2]; angiogenic index, 0-16 scale): 1 | % Initiation EpoB 10^−8 M [2, 9]: 6.7% | % Initiation % ↓ ([3]; 10^−8 M, decrease vs control): 12% | Al (0-16) % ↓ ([3]; 10^−8 M, decrease vs control): 40% | Al (0-16) EpoB 10^−8 M ([3]; angiogenic index, 0-16 scale): 6.1 | % Initiation EpoB 10^−8 M [3, 9]: 37% | Al (0-16) EpoB 10^−8 M ([4]; angiogenic index, 0-16 scale): 2.1 | % Initiation EpoB 10^−8 M [4, 9]: 50% | % Initiation % ↓ ([4]; 10^−8 M, decrease vs control): 50% | Al (0-16) % ↓ ([4]; 10^−8 M, decrease vs control): 85% | % Initiation % ↓ ([5]; 10^−8 M, decrease vs control): 15% | Al (0-16) % ↓ ([5]; 10^−8 M, decrease vs control): 40% | Al (0-16) EpoB 10^−8 M ([5]; angiogenic index, 0-16 scale): 8.2 | % Initiation EpoB 10^−8 M [5, 9]: 20% | % Initiation % ↓ ([6]; 10^−8 M, decrease vs control): 40% | Al (0-16) % ↓ ([6]; 10^−8 M, decrease vs control): 73% | Al (0-16) EpoB 10^−8 M ([6]; angiogenic index, 0-16 scale): 2.5 | % Initiation EpoB 10^−8 M [6, 9]: 3.3% | % Initiation % ↓ ([7]; 10^−8 M, decrease vs control): 94% | Al (0-16) % ↓ ([7]; 10^−8 M, decrease vs control): 91% | Al (0-16) EpoB 10^−8 M ([7]; angiogenic index, 0-16 scale): 1 | % Initiation EpoB 10^−8 M [7, 9]: 3.3% | % Initiation % ↓ ([8]; 10^−8 M, decrease vs control): 100% | Al (0-16) % ↓ ([8]; 10^−8 M, decrease vs control): 100% | Al (0-16) EpoB 10^−8 M ([8]; angiogenic index, 0-16 scale): 0 | % Initiation EpoB 10^−8 M [8, 9]: 0%
